{
  "source": "paper PMC8097444",
  "about": "(Antimicrobial Agents and Chemotherapy, 2021)",
  "key": {"SARS-CoV-2 virus": {"system": "SARS-CoV-2 virus", "assay_type": "cell-based", "details": "for selectivity index (SI): derived from CC50 and EC50"}, "SARS-CoV-2": {"system": "SARS-CoV-2", "details": "cited from earlier work"}, "SARS-CoV-2 3CL^pro": {"molecular_target": "SARS-CoV-2 3CL^pro (Severe acute respiratory syndrome coronavirus 2, UniProt P0DTD1)", "experiment": "SARS-CoV-2 3CLpro fluorogenic", "assay_type": "biochemical", "details": "for inhibition of 3CL^pro in screen: 10 μM drug, hit of 1,068 or 2,701 FDA-approved drug collection"}, "SARS-CoV-2 PL^pro": {"molecular_target": "SARS-CoV-2 PL^pro (Severe acute respiratory syndrome coronavirus 2, UniProt P0DTD1)", "experiment": "SARS-CoV-2 PLpro fluorogenic inhibition assay: screening at 10 μM and IC50", "assay_type": "biochemical"}, "SARS-CoV": {"system": "SARS-CoV", "details": "read-out: EC50 against SARS-CoV; cited from earlier work"}, "COVID-19 patients": {"system": "COVID-19 patients", "details": "cited from earlier work"}, "[1]": {"system": "SARS-CoV-2 in human lung cells", "details": "in vitro assay; cited from earlier work"}, "[2]": {"details": "read-out: EC50 against SARS-CoV-2 in vitro"}},
  "note": "Where two headings read alike, the source gives them in different places.",
  "data": [
    {"compound": "CNCCCC12CCC(c3ccccc31)c1ccccc12", "note": "[maprotiline]", "values": [
      {"measurement": "antiviral activity, entry step", "setting": "SARS-CoV-2 virus", "value": "not the entry step"},
      {"measurement": "inhibition of virus, postentry treatment", "setting": "SARS-CoV-2 virus", "value": "postentry treatment could still inhibit the virus"},
      {"measurement": "reduction of viral plaques, full-time treatment", "setting": "SARS-CoV-2 virus", "value": "effective in reducing viral plaques"}
    ]},
    {"compound": "ivermectin", "values": [
      {"measurement": "EC50", "setting": "SARS-CoV-2; [2]", "value": 2.5, "unit": "µM"}
    ]},
    {"compound": "O=c1c2ccccc2[se]n1-c1ccccc1", "note": "[Ebselen]", "values": [
      {"measurement": "inhibition of 3CL^pro in screen", "setting": "SARS-CoV-2 3CL^pro", "value": "active at 10 μM"}
    ]},
    {"compound": "CC(C)(C)NC(=O)N[C@H](C(=O)N1C[C@H]2[C@@H]([C@H]1C(=O)NC(CC1CCC1)C(=O)C(N)=O)C2(C)C)C(C)(C)C", "note": "(stereo partly drawn) [Boceprevir]", "values": [
      {"measurement": "inhibition of 3CL^pro in screen", "setting": "SARS-CoV-2 3CL^pro", "value": "active at 10 μM"}
    ]},
    {"compound": "Nc1nc2c(ncn2CCC(CO)CO)c(=O)[nH]1", "note": "[penciclovir]", "values": [
      {"measurement": "inhibition of SARS-CoV-2 replication", "setting": "SARS-CoV-2", "value": "weak inhibition"}
    ]},
    {"compound": "NC(=O)c1nc(F)c[nH]c1=O", "note": "[favipiravir]", "values": [
      {"measurement": "inhibition of SARS-CoV-2 replication", "setting": "SARS-CoV-2", "value": "weak inhibition"}
    ]},
    {"compound": "lopinavir/ritonavir", "values": [
      {"measurement": "inhibition of SARS-CoV-2 replication", "setting": "SARS-CoV-2", "value": "weak inhibition"}
    ]},
    {"compound": "COC(=O)[C@H]1[C@H]2C[C@@H]3c4[nH]c5cc(OC)ccc5c4CCN3C[C@H]2C[C@@H](OC(=O)c2cc(OC)c(OC)c(OC)c2)[C@@H]1OC", "note": "[reserpine]", "values": [
      {"measurement": "IC50", "setting": "SARS-CoV-2 PL^pro", "value": "5.7 ± 0.7", "unit": "µM"},
      {"measurement": "reduction of viral plaques, full-time treatment", "setting": "SARS-CoV-2 virus", "value": "effective in reducing viral plaques"},
      {"measurement": "selectivity index (SI)", "setting": "SARS-CoV-2 virus", "value": "> 15.2"},
      {"measurement": "EC50", "setting": "SARS-CoV", "value": 3.4, "unit": "µM"}
    ]},
    {"compound": "CN(C)C(=O)C(CCN1CCC(O)(c2ccc(Cl)cc2)CC1)(c1ccccc1)c1ccccc1", "note": "[loperamide]", "values": [
      {"measurement": "inhibition of virus, postentry treatment", "setting": "SARS-CoV-2 virus", "value": "postentry treatment could still inhibit the virus"},
      {"measurement": "reduction of viral plaques, full-time treatment", "setting": "SARS-CoV-2 virus", "value": "effective in reducing viral plaques"},
      {"measurement": "antiviral activity, entry step", "setting": "SARS-CoV-2 virus; entry treatment", "value": "not the entry step"}
    ]},
    {"compound": "COC(=O)C1=C(C)NC(C)=C(C(=O)OCCN2CCN(C(c3ccccc3)c3ccccc3)CC2)C1c1cccc([N+](=O)[O-])c1", "note": "(stereo not drawn) [manidipine-2HCl]", "values": [
      {"measurement": "IC50", "setting": "SARS-CoV-2 3CL^pro", "value": "10.4 ± 1.6", "unit": "µM"},
      {"measurement": "IC50", "setting": "SARS-CoV-2 PL^pro", "value": "14.2 ± 1.7", "unit": "µM"},
      {"measurement": "inhibition of virus, postentry treatment", "setting": "SARS-CoV-2 virus", "value": "postentry treatment could still inhibit the virus"},
      {"measurement": "reduction of viral plaques, full-time treatment", "setting": "SARS-CoV-2 virus", "value": "effective in reducing viral plaques"},
      {"measurement": "selectivity index (SI)", "setting": "SARS-CoV-2 virus", "value": "> 6.9"}
    ]},
    {"compound": "Cc1ccc(C(=O)c2cc(O)c(O)c([N+](=O)[O-])c2)cc1", "note": "[tolcapone]", "values": [
      {"measurement": "IC50", "setting": "SARS-CoV-2 3CL^pro", "value": 7.9, "unit": "µM"},
      {"measurement": "inhibition of 3CL^pro in screen", "setting": "SARS-CoV-2 3CL^pro", "value": "active at 10 μM"},
      {"measurement": "antiviral activity (figure not shown)", "setting": "SARS-CoV-2 virus; tolcapone", "value": "weak antiviral activity only at 50 μM"}
    ]},
    {"compound": "CCC(CC)COC(=O)[C@H](C)N[P@](=O)(OC[C@H]1O[C@@](C#N)(c2ccc3c(N)ncnn23)[C@H](O)[C@@H]1O)Oc1ccccc1", "note": "[Remdesivir]", "values": [
      {"measurement": "EC50", "setting": "SARS-CoV-2; read-out: EC50, SARS-CoV-2 viral replication", "value": 0.7, "unit": "µM"},
      {"measurement": "benefit in clinical trials on COVID-19 patients", "setting": "COVID-19 patients", "value": 68, "unit": "%"}
    ]},
    {"compound": "N[C@@H](Cc1cc(I)c(Oc2cc(I)c(O)c(I)c2)c(I)c1)C(=O)O", "note": "[levothyroxine]", "values": [
      {"measurement": "IC50", "setting": "SARS-CoV-2 3CL^pro", "value": "19.2 ± 1.2", "unit": "µM"},
      {"measurement": "IC50", "setting": "SARS-CoV-2 PL^pro", "value": "15.3 ± 4.2", "unit": "µM"},
      {"measurement": "inhibition of virus, postentry treatment", "setting": "SARS-CoV-2 virus", "value": "postentry treatment could not inhibit the virus"},
      {"measurement": "reduction of viral plaques, full-time treatment", "setting": "SARS-CoV-2 virus", "value": "effective in reducing viral plaques"},
      {"measurement": "selectivity index (SI)", "setting": "SARS-CoV-2 virus", "value": "> 14.3"}
    ]},
    {"compound": "NC(=O)c1ncn([C@@H]2O[C@H](CO)[C@@H](O)[C@H]2O)n1", "note": "[ribavirin]", "values": [
      {"measurement": "inhibition of SARS-CoV-2 replication", "setting": "SARS-CoV-2", "value": "weak inhibition"}
    ]},
    {"compound": "CCN(CCO)CCCC(C)Nc1ccnc2cc(Cl)ccc12", "note": "(stereo not drawn) [hydroxychloroquine]", "values": [
      {"measurement": "inhibition of SARS-CoV-2 in vitro", "setting": "SARS-CoV-2", "value": "shown to inhibit SARS-CoV-2 in vitro"},
      {"measurement": "clinical benefit against COVID-19", "setting": "COVID-19 patients", "value": "no clinical benefit"}
    ]},
    {"compound": "CCN(CC)CCCC(C)Nc1ccnc2cc(Cl)ccc12", "note": "(stereo not drawn) [chloroquine]", "values": [
      {"measurement": "EC50", "setting": "SARS-CoV-2; [2]", "value": 1.13, "unit": "µM"},
      {"measurement": "inhibitory effects on SARS-CoV-2 in human lung cells", "setting": "[1]", "value": "no inhibitory effects"}
    ]}
  ]
}
